Source: patent publication US11656221B2, “Methods to identify modulators of actin-binding proteins” (Regents of the University of Minnesota, priority 2019, dated 2023)
pKd: −log10 of the molar value. “Also recorded” adds a separate entry of the source. Like-named read-outs stand apart in the source and are kept apart here.

How the values were obtained:
[1] = molecular target: T1, ternary complex consisting of GFP-ABD-L253P, Lifeact-mCherry, and actin (Homo sapiens, UniProt O15020, L253P); test: Primary live-cell time-resolved FRET assay (GFP-ABD-L253P plus Lifeact-mCherry); type: cell-based; details: LOPAC compounds 10 μM, 120 min
T1 construct: L252P β-III-spectrin (human) ABD residues 1-284; expressed in transfected cells; host or cells: HEK293-6E, pTT5 vector, transient

[2] = tested on: HEK293-6E cells; test: Trypan blue cell viability assay; type: cell-based; details: 10 μM, 3 hr incubation
Method: HEK293-6E cell viability was measured using trypan blue (0.03%) staining and a Countess Automated Cell counter (Invitrogen). Non-transfected HEK293-6E cells were spun at 100×g for 5 min at 21° C., and resuspended in 10 mL of PBS. The centrifugation and resuspension were repeated twice more. Final cell concentration was 1×10^6 cells/mL. Cells were incubated with 2% DMSO, or 3-50 μM compound (as indicated) for 3 hrs at room temperature (21° C.). After addition of 100 μL of 0.06% trypan blue solution in PBS, 10 μL was loaded on a slide and injected into the cell counter, and cell viability was measured.

[3] = tested on: mammalian cells; details: cited from earlier work
[4] = molecular target: T2, Lifeact-mCherry binding to F-actin (Oryctolagus cuniculus, UniProt P68135); test: F-actin and Lifeact-mCherry co-sedimentation assay; design: species or system New Zealand white rabbit (Oryctolagus cuniculus); details: 10 μM
T2 construct: Actin was purified from acetone powder derived from the psoas muscle; made in house; host or cells: actin from rabbit psoas muscle; Lifeact-mCherry from E. coli, pE-SUMOpro
Method: Actin was purified from acetone powder derived from the psoas muscle of New Zealand white rabbit (Oryctolagus cuniculus). Filamentous (F)-actin was stored for up to 3 days on ice before use in binding assays. Within an hour of the binding assay, the F-actin was clarified at 100,000×g at 4° C. for 10 min prior to setting up binding assays. The L253P β-III-spectrin ABD was expressed in E. coli BL21(DE3) (Novagen). The ABD was purified and the His-SUMO tag proteolytically removed, as previously described, except size-exclusion chromatography was not performed due to the high purity of the ABD protein. Lifeact-mCherry protein was similarly prepared. A Bradford assay was performed to determine clarified F-actin and ABD protein concentrations.
F-actin and ABD binding assays were performed as previously described. In brief, binding assays used 1 μM ABD protein, 1 μM F-actin and 1-50 μM compound (as indicated) or DMSO control for a total reaction volume of 60 μL in F-buffer containing 10 mM Tris, pH 7.5, 150 mM NaCl, 0.5 mM ATP, 2 mM MgCl2, and 1 mM DTT. Following 30 min incubation at room temperature (21° C.). F-actin was pelleted using centrifugation at 100,000×g at 25° C. for 30 min. Unbound ABD in the supernatant was measured following SDS-PAGE and Coomassie blue staining in accord. In addition, control co-sedimentations assays that lacked actin were performed to test if compounds cause ABD aggregation. F-actin and Lifeact-mCherry binding assays were undertaken with 2 μM Lifeact-mCherry, 30 μM F-actin and 1-50 μM compound (as indicated) or DMSO control for a total reaction volume of 80 μL in F-buffer. For a no-actin binding control, an assay sample with no F-actin was also set up. Binding reactions were allowed to reach equilibrium at room temperature (21° C.) for 30 min and then F-actin was pelleted by centrifugation at 100,000×g at 25° C. for 30 min. The amount of unbound Lifeact-mCherry was sampled by loading 7 μL of spin supernatant on a low volume black bottom 384-well plate (Greiner). Amount of mCherry was determined by acquiring fluorescence spectrum peak intensity at ˜600 nm using a spectral unmixing plate reader (Fluorescence Innovations, Inc) equipped with a 532 nm laser (Laserglow Technologies, Ontario, Canada) for excitation, 532 nm longpass filter for emission, and PMT for emission detection. The fraction of Lifeact-mCherry bound to F-actin was determined by subtracting from one the fraction of supernatant fluorescence intensity relative to the no-actin control sample, using the following equation:
[formula] • Where Fcontrol/DMSO is the peak mCherry fluorescence of assay samples containing compound or DMSO control, and Fno-actin is the peak mCherry fluorescence of assay samples that contained no F-actin. 2.9 Trypan Blue Cell Viability Assays

[5] = molecular target: actin filaments; details: cited from earlier work
[6] = molecular target: T3, GFP-ABD-L253P and Lifeact-mCherry on actin filaments (Homo sapiens, UniProt O15020, L253P); test: Live-cell FRET assay after actin depolymerization (Example 2); type: cell-based; details: 60 min treatment
T3 construct: expressed in transfected cells; host or cells: HEK293.2sus (ATCC CRL-1573.3), pcDNA3.1(+), transient
From the text: Expression constructs. FRET donor and acceptor constructs were generated using the plasmid expression vector, pcDNA3.1(+) (Invitrogen). The coding sequence for Lifeact-mCherry was PCR amplified from mCherry-Lifeact-7 (Addgene, plasmid #54491) using the oligonucleotides, […] and […], and ligated into pcDNA3.1(+) using the restriction enzymes Kpn1 and Xba1, resulting in the construct pcDNA3.1-Lifeact-mCherry. To generate GFP-ABD expression constructs, a mEGFP DNA construct with flanking Kpn1 and EcoR1 restriction sites, was synthesized (Integrated DNA Technologies). The mEGFP sequence was subcloned into pcDNA3.1(+) using Kpn1 and EcoR1 restriction enzymes, resulting the in the construct, pcDNA3.1-GFP. DNA sequences encoding the wild-type or L253P human β-III-spectrin ABD (amino acids 1-284, NCBI reference sequence NP_008877.1) were PCR amplified from pE-SUMO-ABD-WT or -L253P (Avery, 2017 PMID: 29116080) using the oligonucleotides […] and […], and inserted into pcDNA3.1-GFP using EcoR1 and Xba1 restriction enzymes. The resulting constructs, pcDNA3.1-GFP-ABD-WT and -L253P, along with pcDNA3.1-Lifeact-mCherry, were sequence verified. […]
FRET Measurement. FRET in live cells was measured using a Fluorescence Lifetime (FLT) Plate Reader (FLTPR) (Fluorescence Innovations). […]

T3 sequence (O15020 1-284 L253P): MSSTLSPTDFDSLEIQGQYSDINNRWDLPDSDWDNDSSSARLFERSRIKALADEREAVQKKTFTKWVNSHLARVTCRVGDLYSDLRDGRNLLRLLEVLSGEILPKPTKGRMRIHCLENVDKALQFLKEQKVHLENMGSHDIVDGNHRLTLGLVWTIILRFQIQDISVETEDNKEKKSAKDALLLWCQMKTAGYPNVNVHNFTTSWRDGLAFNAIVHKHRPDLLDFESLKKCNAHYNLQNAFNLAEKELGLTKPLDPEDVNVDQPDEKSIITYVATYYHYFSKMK
T1 sequence (O15020 1-284 L253P, one chain of several): as the sequence (O15020 1-284 L253P) above

Compound	effect on FRET in primary screen (Hit, 4SD threshold) [1]	effect on HEK293-6E cell viability [2]	reported effect on cell viability [3]	effect on Lifeact-mCherry binding with actin [4]	effect on FRET between GFP-ABD-L253P and Lifeact-mCherry [6]	also measured
CCCCCCCCCCCCCCCC(=O)OC(CC(=O)[O-])C[N+](C)(C)C (racemic) [palmitoyl-DL-carnitine]	decrease FRET	dramatically reduced cell viability; also recorded: reduces HEK293-6E cell viability	reported to reduce cell viability	decreased actin-Lifeact co-sedimentation; also recorded: reduce Lifeact-mCherry binding with actin	–	–
K255E α-actinin-4: α-actinin-4 carrying the disease mutation K255E	–	–	–	–	–	pKd ([5]; mutant ABD proteins): 7.34
wild-type: wild-type dystrophin, comparator for L212P	–	–	–	–	–	pKd ([5]; wild-type dystrophin, Singh et al.): ~4.35
Clc1ccc(C(c2ccc(Cl)cc2)n2cc[n+](CC(OCc3ccc(Cl)cc3Cl)c3ccc(Cl)cc3Cl)c2)cc1 (stereo not drawn) [calmidazolium]	decrease FRET	dramatically reduced cell viability; also recorded: reduces HEK293-6E cell viability	reported to reduce cell viability	decreased actin-Lifeact co-sedimentation; also recorded: reduce Lifeact-mCherry binding with actin	–	–
C/C1=C/C(=O)O[C@@H]2C[C@@H](CC[C@H](C)/C=C\CC1)O[C@@](O)([C@@H]1CSC(=O)N1)C2 [latrunculin B]	–	–	–	–	significantly reduce FRET; also recorded: decrease in FRET	–
C/C1=C/C(=O)O[C@@H]2C[C@@H](CC[C@H](C)/C=C\C=C\CC1)O[C@@](O)([C@@H]1CSC(=O)N1)C2 [latrunculin A]	–	–	–	–	significantly reduce FRET; also recorded: decrease in FRET	–
